Reference: patent publication US11168073B2, “3,3-difluoroallylamines or salts thereof and pharmaceutical compositions comprising the same” (YUHAN CORPORATION, priority 2018, dated 2021)
Structures can show the parent of a compound that is named as a salt. Where two headings read alike, the source gives them in different places.

Assays:
Format in all cases: biochemical
[1] = biological target: T1, recombinant human MAO-B (monoamine oxidase-B) (Homo sapiens, UniProt P27338); experiment: Activity evaluation on recombinant human MAO-B (Amplex Red/HRP-coupled assay, 1 mM benzylamine substrate); settings: read-out: Inhibitory Activity (IC50, nM) MAO-B
T1 construct: purchased Sigma-Aldrich
T1 sequence (P27338 1-520): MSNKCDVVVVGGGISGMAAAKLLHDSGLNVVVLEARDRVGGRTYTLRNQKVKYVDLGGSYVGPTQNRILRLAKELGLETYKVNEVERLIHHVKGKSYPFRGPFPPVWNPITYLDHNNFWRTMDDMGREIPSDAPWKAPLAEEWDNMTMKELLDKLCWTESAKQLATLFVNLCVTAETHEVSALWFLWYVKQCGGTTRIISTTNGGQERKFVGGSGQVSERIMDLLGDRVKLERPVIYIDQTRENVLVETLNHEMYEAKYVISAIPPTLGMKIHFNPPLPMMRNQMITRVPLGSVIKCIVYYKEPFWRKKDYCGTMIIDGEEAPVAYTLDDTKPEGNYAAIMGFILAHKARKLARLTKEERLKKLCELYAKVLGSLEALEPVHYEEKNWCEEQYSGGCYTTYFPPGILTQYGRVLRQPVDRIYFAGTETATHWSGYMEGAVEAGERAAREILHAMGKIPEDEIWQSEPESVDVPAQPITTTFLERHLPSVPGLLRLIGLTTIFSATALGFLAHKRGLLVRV
Method in brief: (§1)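 Using an HRP-coupled Amplex Red readout (544/590 nm, kinetic over 1–2 h), IC50 values were fitted by 4-parameter logistic model to percent decrease in signal rate against DMSO control. Compounds (1:3 dilutions, 8 points, <1% DMSO) sat 30 min at 37 °C with enzyme in pH 7.4 phosphate buffer before substrate, 200 uM Amplex Red and HRP were added.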

[2] = biological target: T2, recombinant human VAP-1 (Homo sapiens, UniProt Q16853); experiment: Activity evaluation on recombinant human VAP-1 (Amplex Red/HRP-coupled hydrogen peroxide assay, benzylamine substrate); settings: read-out: Inhibitory Activity (IC50, nM) human VAP-1
T2 construct: purchased R&D systems
T2 sequence (Q16853 1-763): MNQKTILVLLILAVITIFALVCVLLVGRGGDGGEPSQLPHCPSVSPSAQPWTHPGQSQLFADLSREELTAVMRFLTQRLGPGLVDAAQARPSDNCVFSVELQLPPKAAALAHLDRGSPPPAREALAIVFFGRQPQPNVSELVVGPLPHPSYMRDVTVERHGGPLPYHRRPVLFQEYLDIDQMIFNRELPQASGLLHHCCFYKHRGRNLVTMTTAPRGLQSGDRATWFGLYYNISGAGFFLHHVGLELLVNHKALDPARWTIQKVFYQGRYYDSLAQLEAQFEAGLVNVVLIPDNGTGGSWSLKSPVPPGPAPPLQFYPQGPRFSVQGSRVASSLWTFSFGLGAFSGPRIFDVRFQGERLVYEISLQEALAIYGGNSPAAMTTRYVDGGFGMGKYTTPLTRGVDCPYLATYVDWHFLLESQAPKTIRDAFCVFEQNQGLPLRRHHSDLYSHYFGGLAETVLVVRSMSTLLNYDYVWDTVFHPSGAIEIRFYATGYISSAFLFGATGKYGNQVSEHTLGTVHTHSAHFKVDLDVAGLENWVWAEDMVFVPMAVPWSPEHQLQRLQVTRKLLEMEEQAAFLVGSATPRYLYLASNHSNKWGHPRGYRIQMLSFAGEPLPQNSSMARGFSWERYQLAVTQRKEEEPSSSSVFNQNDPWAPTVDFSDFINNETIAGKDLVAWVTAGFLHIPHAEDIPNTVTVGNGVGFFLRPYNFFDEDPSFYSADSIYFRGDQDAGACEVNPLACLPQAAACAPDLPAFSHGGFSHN
Method in brief: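 Hydrogen peroxide from benzylamine (1 mM) oxidation by human recombinant VAP-1 detected via HRP-coupled Amplex Red (200 uM) fluorescence, kinetic over 1–2 h. Enzyme and compound preincubated 30 min at 37 °C, pH 7.4 phosphate; 8-point dose response, signal-rate decrease versus DMSO control fitted to four-parameter logistic for IC50.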

[3] = biological target: T3, recombinant human MAO-A (monoamine oxidase-A) (Homo sapiens, UniProt P21397); experiment: Activity evaluation on recombinant human MAO-A (Amplex Red/HRP-coupled assay, 0.5 mM tyramine substrate); settings: read-out: Inhibitory Activity (IC50, nM) MAO-A
T3 construct: purchased Sigma-Aldrich
T3 sequence (P21397 1-527): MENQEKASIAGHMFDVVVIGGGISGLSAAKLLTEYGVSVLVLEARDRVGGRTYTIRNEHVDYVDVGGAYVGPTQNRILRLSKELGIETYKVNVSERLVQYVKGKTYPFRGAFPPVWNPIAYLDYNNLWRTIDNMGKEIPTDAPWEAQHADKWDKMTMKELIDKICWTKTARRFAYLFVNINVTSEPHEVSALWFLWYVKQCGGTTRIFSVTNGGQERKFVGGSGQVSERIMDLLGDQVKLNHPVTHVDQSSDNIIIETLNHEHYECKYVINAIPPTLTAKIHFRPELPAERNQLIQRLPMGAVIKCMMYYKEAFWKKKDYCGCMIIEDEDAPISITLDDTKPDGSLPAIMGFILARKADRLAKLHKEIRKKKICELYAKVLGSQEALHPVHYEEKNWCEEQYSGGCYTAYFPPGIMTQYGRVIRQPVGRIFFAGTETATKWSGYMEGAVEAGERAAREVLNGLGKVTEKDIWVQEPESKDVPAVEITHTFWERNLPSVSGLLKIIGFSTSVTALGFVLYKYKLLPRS
Method in brief: as §1

[4] = biological target: T4, recombinant human DAO (diamine oxidase) (Homo sapiens, UniProt P19801); experiment: Activity evaluation on recombinant human DAO (Amplex Red/HRP-coupled assay, 1 mM putrescine substrate); settings: read-out: Inhibitory Activity (IC50, nM) DAO
T4 construct: purchased R&D systems
T4 sequence (P19801 20-751): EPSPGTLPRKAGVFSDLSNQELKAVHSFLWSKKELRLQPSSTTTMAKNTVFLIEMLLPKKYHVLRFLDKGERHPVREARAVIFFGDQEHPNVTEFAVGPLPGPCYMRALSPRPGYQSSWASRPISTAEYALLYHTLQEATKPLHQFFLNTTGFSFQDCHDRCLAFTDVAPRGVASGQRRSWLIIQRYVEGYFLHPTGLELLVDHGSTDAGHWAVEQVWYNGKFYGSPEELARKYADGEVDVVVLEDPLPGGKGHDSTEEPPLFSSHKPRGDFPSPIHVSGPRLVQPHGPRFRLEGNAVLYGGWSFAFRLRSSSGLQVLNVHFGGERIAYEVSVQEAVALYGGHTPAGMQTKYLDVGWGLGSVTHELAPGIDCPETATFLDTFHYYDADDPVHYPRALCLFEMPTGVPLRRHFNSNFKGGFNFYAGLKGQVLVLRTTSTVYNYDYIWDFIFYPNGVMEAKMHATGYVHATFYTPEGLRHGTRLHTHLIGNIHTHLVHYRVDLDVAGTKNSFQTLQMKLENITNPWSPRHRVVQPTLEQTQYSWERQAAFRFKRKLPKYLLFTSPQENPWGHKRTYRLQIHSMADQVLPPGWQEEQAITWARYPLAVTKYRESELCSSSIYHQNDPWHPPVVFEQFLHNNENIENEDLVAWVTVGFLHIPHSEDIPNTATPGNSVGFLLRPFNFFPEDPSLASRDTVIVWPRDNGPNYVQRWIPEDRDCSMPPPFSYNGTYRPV
Method in brief: as §1

[5] = recombinant human VAP-1, 30 min preincubation at 37° C., 1 mM benzylamine
[6] = recombinant human VAP-1, benzylamine substrate

Row | SMILES | IC50 ([1]; 1 mM benzylamine) | IC50 [2, 5] | IC50 ([3]; 0.5 mM tyramine) | IC50 ([4]; 1 mM putrescine) | IC50 ([1]; 1 mM benzylamine substrate) | IC50 [2, 6] | IC50 ([3]; 0.5 mM tyramine substrate) | IC50 ([4]; 1 mM putrescine substrate)
1 | CN(C)S(=O)(=O)c1cccc(-c2ccc(Cn3cnn(CC(CN)=C(F)F)c3=O)s2)c1 [Example 103, 3-[5-[[1-[2-(aminomethyl)-3,3-difluoro-allyl]-5-oxo-1,2,4-triazol-4-yl]methyl]-2-thienyl]-N,N-dimethyl-benzenesulfonamide trifluoroacetate] | 4200 nM | 0.9 nM | > 100000 nM | 22000 nM |  |  |  | 
2 | NCC(Cn1ncn(-c2ncc(-c3ccc(N4CCNCC4)cc3)cc2F)c1=O)=C(F)F [Example 83, 2-[2-(aminomethyl)-3,3-difluoro-allyl]-4-[3-fluoro-5-(4-piperazin-1-ylphenyl)-2-pyridyl]-1,2,4-triazol-3-one Ditrifluoroacetate] | > 10000 nM | 0.4 nM | > 100000 nM | 250 nM |  |  |  | 
3 | CN(C)c1ccc(-c2csc(Cn3cnn(CC(CN)=C(F)F)c3=O)c2)cn1 [Example 149, 2-[2-(aminomethyl)-3,3-difluoro-allyl]-4-[[4-[6-(dimethylamino)-3-pyridyl]-2-thienyl]methyl]-1,2,4-triazol-3-one Trifluoroacetate] | > 100000 nM | 0.6 nM | > 100000 nM | > 10000 nM |  |  |  | 
4 | CN(C)c1ccc(-c2ccc(CCn3cnn(CC(CN)=C(F)F)c3=O)s2)cn1 [Example 176, 2-[2-(aminomethyl)-3,3-difluoro-allyl]-4-[2-[5-[6-(dimethylamino)-3-pyridyl]-2-thienyl]ethyl]-1,2,4-triazol-3-one Trifluoroacetate] | > 100000 nM | 0.5 nM | > 100000 nM | 1100 nM |  |  |  | 
5 | NCC(Cn1ncn(CCc2ccc(-c3ccc(N4CCNCC4)cc3)s2)c1=O)=C(F)F [Example 174, 2-[2-(aminomethyl)-3,3-difluoro-allyl]-4-[2-[5-(4-piperazin-1-ylphenyl)-2-thienyl]ethyl]-1,2,4-triazol-3-one Ditrifluoroacetate] | > 100000 nM | 1.3 nM | > 100000 nM | 29 nM |  |  |  | 
6 | NCC(Cn1ncn(Cc2ccc(OCc3ccccc3)cc2)c1=O)=C(F)F [Example 96, 2-[2-(aminomethyl)-3,3-difluoro-allyl]-4-[(4-benzyloxyphenyl)methyl]-1,2,4-triazol-3-one Trifluoroacetate] | 220 nM | 13 nM | > 100000 nM | > 100000 nM |  |  |  | 
7 | NCC(Cn1ncn(Cc2ccc(C#Cc3cnc4c(c3)NC(=O)CO4)s2)c1=O)=C(F)F [Example 169, 7-[2-[5-[[1-[2-(aminomethyl)-3,3-difluoro-allyl]-5-oxo-1,2,4-triazol-4-yl]methyl]-2-thienyl]ethynyl]-1H-pyrido[2,3-b][1,4]oxazin-2-one Trifluoroacetate] | > 100000 nM | 0.2 nM | > 100000 nM | > 100000 nM |  |  |  | 
8 | CCn1cc(-c2ccc3sc(Cn4cnn(CC(CN)=C(F)F)c4=O)cc3c2)ccc1=O [Example 207, 5-[2-[[1-[2-(aminomethyl)-3,3-difluoro-allyl]-5-oxo-1,2,4-triazol-4-yl]methyl]benzothiophen-5-yl]-1-ethyl-pyridin-2-one Trifluoroacetate] |  |  |  |  | > 100000 nM | 0.7 nM | > 100000 nM | > 100000 nM
9 | CN(C)C(=O)c1cccc(-c2ccc(Cn3cnn(CC(CN)=C(F)F)c3=O)s2)c1 [Example 181, 3-[5-[[1-[2-(aminomethyl)-3,3-difluoro-allyl]-5-oxo-1,2,4-triazol-4-yl]methyl]-2-thienyl]-N,N-dimethyl-benzamide trifluoroacetate] |  |  |  |  | > 100000 nM | 2.3 nM | > 100000 nM | > 10000 nM
10 | NCC(Cn1ncn(CCc2ccc(-c3ccc4c(c3)OCO4)s2)c1=O)=C(F)F [Example 177, 2-[2-(aminomethyl)-3,3-difluoro-allyl]-4-[2-[5-(1,3-benzodioxol-5-yl)-2-thienyl]ethyl]-1,2,4-triazol-3-one Trifluoroacetate] | 700 nM | 1.2 nM | > 100000 nM | 2500 nM |  |  |  | 
11 | Cc1cc(-c2ccc(N3CCNCC3)cc2)sc1Cn1cnn(CC(CN)=C(F)F)c1=O [Example 155, 2-[2-(aminomethyl)-3,3-difluoro-allyl]-4-[[3-methyl-5-(4-piperazin-1-ylphenyl)-2-thienyl]methyl]-1,2,4-triazol-3-one Ditrifluoroacetate] | > 100000 nM | 56 nM | > 100000 nM | 50000 nM |  |  |  | 
12 | Cn1cc(-c2ccc(Cn3cnn(CC(CN)=C(F)F)c3=O)s2)cn1 [Example 296, 2-[2-(aminomethyl)-3,3-difluoro-allyl]-4-[[5-(1-methylpyrazol-4-yl)-2-thienyl]methyl]-1,2,4-triazol-3-one Trifluoroacetate] |  |  |  |  | > 100000 nM | 1 nM | > 100000 nM | > 100000 nM
